Source: ChEMBL document CHEMBL1667814 (Bioorg Med Chem, 2011)

Legend:
Cholinesterase = Cholinesterase (Equus caballus, UniProt P81908)
Description: Inhibition of equine serum BChE by Ellman's method

Acetylcholinesterase = Acetylcholinesterase (Electrophorus electricus, UniProt O42275)
Chain of Acetylcholinesterase (O42275 whole entry): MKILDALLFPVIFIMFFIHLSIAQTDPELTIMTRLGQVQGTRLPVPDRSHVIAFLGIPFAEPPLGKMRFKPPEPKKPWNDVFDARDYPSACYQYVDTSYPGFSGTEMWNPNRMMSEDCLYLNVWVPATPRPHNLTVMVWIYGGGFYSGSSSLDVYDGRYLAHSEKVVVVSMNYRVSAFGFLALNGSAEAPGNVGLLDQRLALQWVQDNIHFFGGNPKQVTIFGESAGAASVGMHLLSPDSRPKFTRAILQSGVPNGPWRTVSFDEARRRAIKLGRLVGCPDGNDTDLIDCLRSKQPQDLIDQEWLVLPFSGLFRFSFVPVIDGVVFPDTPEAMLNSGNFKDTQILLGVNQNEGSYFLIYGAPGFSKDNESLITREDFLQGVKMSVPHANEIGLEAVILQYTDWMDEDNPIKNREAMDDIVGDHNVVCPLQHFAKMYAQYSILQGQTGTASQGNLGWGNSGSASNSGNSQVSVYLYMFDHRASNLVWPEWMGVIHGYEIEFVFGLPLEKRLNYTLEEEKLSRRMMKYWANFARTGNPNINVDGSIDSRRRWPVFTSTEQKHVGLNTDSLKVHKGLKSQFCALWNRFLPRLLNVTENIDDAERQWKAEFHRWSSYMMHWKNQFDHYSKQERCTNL
Description: Inhibition of electric eel AChE by Ellman's method

Chain of Cholinesterase (P81908 whole entry): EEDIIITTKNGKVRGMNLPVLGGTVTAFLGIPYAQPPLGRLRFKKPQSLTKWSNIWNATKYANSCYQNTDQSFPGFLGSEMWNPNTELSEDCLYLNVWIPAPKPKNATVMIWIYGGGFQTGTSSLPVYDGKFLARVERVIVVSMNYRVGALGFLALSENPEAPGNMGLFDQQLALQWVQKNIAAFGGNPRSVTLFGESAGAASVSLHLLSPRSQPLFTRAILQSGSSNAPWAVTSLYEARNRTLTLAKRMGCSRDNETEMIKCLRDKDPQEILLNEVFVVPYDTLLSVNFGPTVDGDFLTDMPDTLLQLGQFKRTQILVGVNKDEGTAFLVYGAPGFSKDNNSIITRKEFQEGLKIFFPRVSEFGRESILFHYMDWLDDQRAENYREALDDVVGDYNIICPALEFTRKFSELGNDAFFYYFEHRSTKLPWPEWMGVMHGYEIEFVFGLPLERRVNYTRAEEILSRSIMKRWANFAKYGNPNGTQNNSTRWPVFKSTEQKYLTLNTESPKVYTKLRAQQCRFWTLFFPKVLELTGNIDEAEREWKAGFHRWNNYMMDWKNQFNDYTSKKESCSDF

| SMILES | IC50 (Cholinesterase) | IC50 (Acetylcholinesterase; read-out: IC50) | IC50 (Acetylcholinesterase; read-out: pIC50 (converted)) |
| --- | --- | --- | --- |
| c1ccc(C/N=c2/c3ccccc3nc3n2CCCCCC3)cc1 | 1100 nM | > 500000 nM |  |
| c1ccc(C/N=c2/c3ccccc3nc3n2CCC3)cc1 | 1900 nM | 13900 nM |  |
| c1ccc2/c(=N\CCCCCCC/N=c3\c4ccccc4nc4n3CCC4)n3c(nc2c1)CCC3 | 88 nM | 79 nM |  |
| CN(CCCN=c1c2ccccc2nc2n1CCC2)CCC/N=c1\c2ccccc2nc2n1CCC2 | 547 nM | 541 nM |  |
| CC(=O)N(CCCN=c1c2ccccc2nc2n1CCC2)CCC/N=c1\c2ccccc2nc2n1CCC2 | 267 nM | 331 nM |  |
| c1ccc2c(=NCCCCCCC/N=c3\c4ccccc4nc4n3CCCCCC4)n3c(nc2c1)CCCCCC3 | 27 nM | 65 nM |  |
| CN(CCCN=c1c2ccccc2nc2n1CCCCCC2)CCC/N=c1\c2ccccc2nc2n1CCCCCC2 | 197 nM | 203 nM |  |
| CC(=O)N(CCCN=c1c2ccccc2nc2n1CCCCCC2)CCC/N=c1\c2ccccc2nc2n1CCCCCC2 | 72.7 nM | 49 nM |  |
| c1ccc2c(=NCCCCCCCCN=c3c4ccccc4nc4n3CCC4)n3c(nc2c1)CCC3 | 4.8 nM | 58 nM |  |
| CN(CCCCN=c1c2ccccc2nc2n1CCC2)CCCN=c1c2ccccc2nc2n1CCC2 | 81.3 nM | 561 nM |  |
| CC(=O)N(CCCCN=c1c2ccccc2nc2n1CCC2)CCCN=c1c2ccccc2nc2n1CCC2 | 4 nM | 20.9 nM |  |
| CCC(=O)N(CCCCN=c1c2ccccc2nc2n1CCC2)CCCN=c1c2ccccc2nc2n1CCC2 | 5.9 nM | 18 nM |  |
| C=C(C)C(=O)N(CCCCN=c1c2ccccc2nc2n1CCC2)CCCN=c1c2ccccc2nc2n1CCC2 | 10.6 nM | 6.7 nM |  |
| c1ccc2c(=NCCCCCCCCN=c3c4ccccc4nc4n3CCCCCC4)n3c(nc2c1)CCCCCC3 | 76 nM | 14400 nM |  |
| CN(CCCCN=c1c2ccccc2nc2n1CCCCCC2)CCCN=c1c2ccccc2nc2n1CCCCCC2 | 51.4 nM | 606 nM |  |
| CC(=O)N(CCCCN=c1c2ccccc2nc2n1CCCCCC2)CCCN=c1c2ccccc2nc2n1CCCCCC2 | 43.1 nM | 177 nM |  |
| CCC(=O)N(CCCCN=c1c2ccccc2nc2n1CCCCCC2)CCCN=c1c2ccccc2nc2n1CCCCCC2 | 46.3 nM | 289 nM |  |
| C=C(C)C(=O)N(CCCCN=c1c2ccccc2nc2n1CCCCCC2)CCCN=c1c2ccccc2nc2n1CCCCCC2 | 37.7 nM | 153 nM |  |
| CC(=O)NCC(=O)N(CCCCN=c1c2ccccc2nc2n1CCCCCC2)CCCN=c1c2ccccc2nc2n1CCCCCC2 | 122 nM | 75.6 nM |  |
| CC(C)(C)C(=O)N(CCCCN=c1c2ccccc2nc2n1CCCCCC2)CCCN=c1c2ccccc2nc2n1CCCCCC2 | 25.5 nM | 536 nM | 53.6 nM |
| CCCCC(=O)N(CCCCN=c1c2ccccc2nc2n1CCCCCC2)CCCN=c1c2ccccc2nc2n1CCCCCC2 | 12.9 nM | 1060 nM |  |
| CC(C)CC(=O)N(CCCCN=c1c2ccccc2nc2n1CCCCCC2)CCCN=c1c2ccccc2nc2n1CCCCCC2 | 8.1 nM | 621 nM |  |
| CC(C)CCC(=O)N(CCCCN=c1c2ccccc2nc2n1CCCCCC2)CCCN=c1c2ccccc2nc2n1CCCCCC2 | 3 nM | 792 nM |  |
